Laboratory results published in ChEMBL document CHEMBL2086342, “Synthesis and preliminary bioevaluation of novel E-ring modified acetal analog of camptothecin as cytotoxic agents” (Eur J Med Chem, 2012).
Active and inactive are the calls of the source. The rule behind the calls is not given here.

Key:
[1] = tested on: A549; assay: Antiproliferative activity against human A549 cells after 3 days by MTT assay; format: functional, cell-based; conditions: A549, 72 h
[2] = tested on: HCT-116; assay: Antiproliferative activity against human HCT116 cells after 3 days by MTT assay; format: functional, cell-based; conditions: HCT-116, 72 h
[3] = tested on: MDA-MB-435; assay: Antiproliferative activity against human MDA-MB-435 cells after 3 days by MTT assay; format: functional, cell-based; conditions: MDA-MB-435, 72 h
[4] = tested on: ZR-75-30; assay: Antiproliferative activity against human ZR75-30 cells after 3 days by MTT assay; format: functional, cell-based; conditions: ZR-75-30, 72 h
[5] = tested on: MRC5; assay: Antiproliferative activity against human MRC5 cells after 3 days by MTT assay; format: cell-based; conditions: mrc5, 72 h
[6] = species: Bos taurus; assay: Inhibition of calf thymus DNA topoisomerase 1-mediated relaxation of supercoiled DNA pBR322 assessed as appearance of short DNA fragment at 100 uM after 15 mins by agarose gel electrophoresis
[7] = species: Bos taurus; assay: Inhibition of calf thymus DNA topoisomerase 1-mediated relaxation of supercoiled DNA pBR322 assessed as appearance of short DNA fragment at 1 to 50 uM after 15 mins by agarose gel electrophoresis
[8] = tested on: A549; assay: Induction of apoptosis in human A549 cells assessed as morphological change at 5 uM after 48 hrs by phase contrast microscopy analysis; format: functional, cell-based
[9] = tested on: A549; assay: Induction of apoptosis in human A549 cells at 5 uM after 48 hrs by annexinV and propidium iodide dual stain based flow cytometry analysis relative to control; format: functional
[10] = tested on: A549; assay: Antitumor activity against human A549 cells xenografted in BALB/c mouse assessed as decrease in tumor weight at 2 mg/kg, ip qd for 5 days measured after 14 days relative to control; format: functional; conditions: route intraperitoneal, read-out: TGI
[11] = tested on: Mus musculus; assay: Toxicity in human A549 cells xenografted in BALB/c mouse assessed as reduction in body weight at 2 mg/kg, ip qd for 5 days measured after 14 days; format: organism-based; set-up: dose 2 mg/kg, route intraperitoneal; conditions: in vivo, 336 h
[12] = tested on: Mus musculus; assay: Toxicity in human A549 cells xenografted in BALB/c mouse assessed as mortality at 2 mg/kg, ip qd for 5 days measured after 14 days; format: organism-based; set-up: dose 2 mg/kg, route intraperitoneal; conditions: in vivo, 336 h
[13] = tested on: Mus musculus; assay: Toxicity in human A549 cells xenografted in BALB/c mouse assessed as gross abnormalities at 2 mg/kg, ip qd for 5 days measured after 14 days by necropsy analysis; format: organism-based; set-up: dose 2 mg/kg, route intraperitoneal; conditions: in vivo, 336 h
[14] = species: Bos taurus; assay: Inhibition of calf thymus DNA topoisomerase 1-mediated relaxation of supercoiled DNA pBR322 assessed as appearance of short DNA fragment after 15 mins by agarose gel electrophoresis
[15] = tested on: A549; assay: Antitumor activity against human A549 cells xenografted in BALB/c mouse assessed as decrease in tumor weight at 0.5 mg/kg, iv qd for 5 days measured after 14 days relative to control; format: functional; conditions: read-out: TGI
[16] = tested on: Mus musculus; assay: Toxicity in human A549 cells xenografted in BALB/c mouse assessed as reduction in body weight at 0.5 mg/kg, iv qd for 5 days measured after 14 days; format: organism-based; set-up: dose 0.5 mg/kg, route intravenous; conditions: in vivo, 336 h
[17] = tested on: Mus musculus; assay: Toxicity in human A549 cells xenografted in BALB/c mouse assessed as mortality at 0.5 mg/kg, iv qd for 5 days measured after 14 days; format: organism-based; set-up: dose 0.5 mg/kg, route intravenous; conditions: in vivo, 336 h

Compound	IC50 [1]	IC50 [2]	IC50 [3]	inhibition [6]	also measured
CCCO[C@@H]1OCc2c(cc3n(c2=O)Cc2cc4ccccc4nc2-3)[C@@]1(O)CC	323 nM	517 nM	12700 nM	–	–
CCCCc1c2c(nc3ccccc13)-c1cc3c(c(=O)n1C2)CO[C@@H](OCCOCC)[C@]3(O)CC	598 nM	1 nM	223 nM	Active	IC50 [4]: 122 nM; Activity [5]: Non-toxic; inhibition [7]: inactive; Activity [8]: Active; Activity [9]: 0.5%; inhibition in vivo at 2 mg/kg [10]: 27%; Activity [11]: 21.09 g; Activity [12]: Non-toxic; Activity [13]: Non-toxic
CC[C@]1(O)c2cc3n(c(=O)c2CO[C@H]1OC(=O)CCC(=O)O)Cc1cc2ccccc2nc1-3	308 nM	264 nM	1320 nM	–	–
CC[C@]1(O)c2cc3n(c(=O)c2CO[C@H]1OCCF)Cc1cc2ccccc2nc1-3	6310 nM	249 nM	1330 nM	Active	–
CC[C@]1(O)c2cc3n(c(=O)c2CO[C@H]1OCC(F)(F)F)Cc1cc2ccccc2nc1-3	5970 nM	309 nM	2300 nM	Active	–
CCOCCO[C@@H]1OCc2c(cc3n(c2=O)Cc2cc4c([N+](=O)[O-])cccc4nc2-3)[C@@]1(O)CC	5690 nM	56.9 nM	1080 nM	–	–
CCO[C@@H]1OCc2c(cc3n(c2=O)Cc2cc4ccccc4nc2-3)[C@@]1(O)CC	322 nM	406 nM	6250 nM	Active	–
CCCCO[C@@H]1OCc2c(cc3n(c2=O)Cc2cc4ccccc4nc2-3)[C@@]1(O)CC	> 100000 nM	95100 nM	> 100000 nM	Active	–
CCOCC(C)O[C@@H]1OCc2c(cc3n(c2=O)Cc2cc4ccccc4nc2-3)[C@@]1(O)CC (stereo partly drawn)	7400 nM	236 nM	2520 nM	–	–
CC[C@]1(O)c2cc3n(c(=O)c2CO[C@H]1OC(C)COC)Cc1cc2ccccc2nc1-3 (stereo partly drawn)	8380 nM	117 nM	2740 nM	–	–
CCOCCO[C@@H]1OCc2c(cc3n(c2=O)Cc2cc4cc(OC)ccc4nc2-3)[C@@]1(O)CC	838 nM	1 nM	210 nM	Active	inhibition [7]: inactive
CC[C@]1(O)c2cc3n(c(=O)c2CO[C@@H]1OC)Cc1cc2ccccc2nc1-3	8800 nM	8170 nM	56400 nM	–	–
CC[C@]1(O)c2cc3n(c(=O)c2CO[C@H]1OCC(C)C)Cc1cc2ccccc2nc1-3	394 nM	210 nM	7900 nM	–	–
CC[C@@]1(O)C(=O)OCc2c1cc1n(c2=O)Cc2cc3ccccc3nc2-1 [CAMPTOTHECIN]	2610 nM	110 nM	43.6 nM	–	inhibition [14]: Dose-dependent effect
CC[C@@]1(O)C(=O)OCc2c1cc1n(c2=O)Cc2cc3c(CN(C)C)c(O)ccc3nc2-1 [TOPOTECAN]	2800 nM	88.9 nM	917 nM	–	inhibition in vivo at 0.5 mg/kg [15]: 57.5%; Activity [16]: 15.15 g; Activity [17]: Non-toxic
CC[C@]1(O)c2cc3n(c(=O)c2CO[C@H]1OCC(F)(F)C(F)(F)F)Cc1cc2ccccc2nc1-3	302 nM	73 nM	606 nM	–	–
CC[C@]1(O)c2cc3n(c(=O)c2CO[C@H]1OC)Cc1cc2ccccc2nc1-3	420 nM	532 nM	3670 nM	Active	–
CCC(C)O[C@@H]1OCc2c(cc3n(c2=O)Cc2cc4ccccc4nc2-3)[C@@]1(O)CC (stereo partly drawn)	> 100000 nM	> 100000 nM	> 100000 nM	–	–
CCCCCO[C@@H]1OCc2c(cc3n(c2=O)Cc2cc4ccccc4nc2-3)[C@@]1(O)CC	678 nM	127 nM	10600 nM	–	–
CC[C@]1(O)c2cc3n(c(=O)c2CO[C@H]1OCCOC)Cc1cc2ccccc2nc1-3	5190 nM	333 nM	4920 nM	Active	–
CC[C@]1(O)c2cc3n(c(=O)c2CO[C@H]1OC(C)C)Cc1cc2ccccc2nc1-3	> 100000 nM	11500 nM	> 100000 nM	–	–
CCOCCO[C@@H]1OCc2c(cc3n(c2=O)Cc2cc4ccccc4nc2-3)[C@@]1(O)CC	2580 nM	90.2 nM	469 nM	Active	inhibition in vivo at 2 mg/kg [10]: 35%; Activity [11]: 20.98 g; Activity [12]: Non-toxic; Activity [13]: Non-toxic
